Experimental data: PMC6017655, “In Silico and in Vitro-Guided Identification of Inhibitors of Alkylquinolone-Dependent Quorum Sensing in Pseudomonas aeruginosa” (Molecules : A Journal of Synthetic Chemistry and Natural …, 2018)

Tests used:
[1] = test system: PqsR (pqsA promoter, PAO1-L mCTX::PpqsA-lux); experiment: Whole cell biosensor reporter assay, PAO1-L mCTX::PpqsA-lux; format: cell-based, Pseudomonas aeruginosa; conditions: Pseudomonas aeruginosa, PAO1, read-out: PAO1-L Remaining Activity %
Protocol: (§1) To determine the ability of the quinolines to inhibit PqsR functionality, the P. aeruginosa biosensor strains, PAO1-L and PA14, incorporating a chromosomal mCTX::PpqsA-lux transcriptional fusion, were used. These report on the activation of the pqsA promoter, regulated by PqsR [25]. PAO1-L and PA14 were chosen because they are genetically amenable and belong to the two major P. aeruginosa genomic groups. The quinolone compounds were incubated with the corresponding strain, and luminescence and optical density readings were recorded to monitor the effect of the quinolines on PqsR activity and bacterial growth, respectively. The compounds were screened at 10 µM concentration, and the activity was compared to a control of DMSO (0.1%) (Figure 3a). To be considered a hit, a threshold of at least 50% inhibition of the test compound, relative to the negative control had to be reached, without affecting bacterial growth. […] Concentration-response experiments were then carried out to determine the IC50 values (Figure 3b,c), which are summarised in Table 1.
(§2) Strains PA14 mCTX::PpqsA-lux and PAO1-L mCTX::PpqsA-lux were constructed using plasmid mini-CTX::PpqsA-lux, as previously described, and the assay was performed according to a published protocol. For screening, the compounds were tested at a concentration of 10 µM, which was prepared from a 10 mM stock, in DMSO.

[2] = test system: PqsR (pqsA promoter, PA14 mCTX::PpqsA-lux); experiment: Whole cell biosensor reporter assay, PA14 mCTX::PpqsA-lux; format: cell-based, Pseudomonas aeruginosa; conditions: Pseudomonas aeruginosa, PA14, read-out: PA14 Remaining Activity %
Protocol: as §1, §2

`CC(=O)N1N=C(c2ccc(C)cc2)CC1c1cccc(Nc2ccnc3cc(Cl)ccc23)c1` (centres unmarked) [IIb] was tested, and the activity at 10 µM [1] was 59.5 ± 1.86% and the activity at 10 µM [2] was 96.2 ± 4.34%.
`COc1ccc(C2=NN(C(C)=O)C(c3cccc(Nc4ccnc5cc(Cl)ccc45)c3)C2)cc1` (centres unmarked) [IIc] gave an activity at 10 µM [1] of 120 ± 8.28% and an activity at 10 µM [2] of 115 ± 2.13%.
`COc1cc(C2=NN(C(C)=O)C(c3cccc(Nc4ccnc5cc(Cl)ccc45)c3)C2)cc(OC)c1OC` (centres unmarked) [IId] showed an activity at 10 µM [1] of 127 ± 9.69% and an activity at 10 µM [2] of 110 ± 1.6%.
In the case of `CC(=O)N1N=C(c2ccc(F)cc2)CC1c1cccc(Nc2ccnc3cc(Cl)ccc23)c1` (centres unmarked) [IIe], the activity at 10 µM [1] is reported as 82.6 ± 22.7% and the activity at 10 µM [2] is reported as 120 ± 1.59%.
Compound `CC(=O)N1N=C(c2ccc(Cl)cc2)CC1c1cccc(Nc2ccnc3cc(Cl)ccc23)c1` (centres unmarked) [IIf] has an activity at 10 µM [1] of 90.2 ± 3.84% and an activity at 10 µM [2] of 103 ± 4.91%.
In the case of `CC(=O)N1N=C(c2ccc(Br)cc2)CC1c1cccc(Nc2ccnc3cc(Cl)ccc23)c1` (centres unmarked) [IIg], the activity at 10 µM [1] is reported as 63.7 ± 5.01% and the activity at 10 µM [2] is reported as 109 ± 2.79%.
With `CC(=O)N1N=C(c2ccc3c(c2)OCO3)CC1c1cccc(Nc2ccnc3cc(Cl)ccc23)c1` (centres unmarked) [IIh] the activity at 10 µM [1] was 65.8 ± 5.63% and the activity at 10 µM [2] was 115 ± 6.02%.
With `CC(=O)N1N=C(c2ccc(C)cc2)CC1c1cccc(Nc2ccnc3cc(C(F)(F)F)ccc23)c1` (centres unmarked) [IIj] the activity at 10 µM [1] was 97.3 ± 6.46% and the activity at 10 µM [2] was 108 ± 6.05%.
`COc1ccc(C2=NN(C(C)=O)C(c3cccc(Nc4ccnc5cc(C(F)(F)F)ccc45)c3)C2)cc1` (centres unmarked) [IIk] was tested, and the activity at 10 µM [1] was 66.7 ± 0.42% and the activity at 10 µM [2] was 118 ± 5.97%.
Work on `COc1cc(C2=NN(C(C)=O)C(c3cccc(Nc4ccnc5cc(C(F)(F)F)ccc45)c3)C2)cc(OC)c1OC` (centres unmarked) [IIl] yielded an activity at 10 µM [1] of 86.1 ± 2.39% and an activity at 10 µM [2] of 103 ± 4.84%.
`CC(=O)N1N=C(c2ccc(F)cc2)CC1c1cccc(Nc2ccnc3cc(C(F)(F)F)ccc23)c1` (centres unmarked) [IIm] showed an activity at 10 µM [1] of 90.2 ± 4.4% and an activity at 10 µM [2] of 99.9 ± 3.17%.
`CC(=O)N1N=C(c2ccc(Cl)cc2)CC1c1cccc(Nc2ccnc3cc(C(F)(F)F)ccc23)c1` (centres unmarked) [IIn] was tested, and the activity at 10 µM [1] was 97.8 ± 5.52% and the activity at 10 µM [2] was 98.1 ± 11.4%.
In the case of `CC(=O)N1N=C(c2ccc(Br)cc2)CC1c1cccc(Nc2ccnc3cc(C(F)(F)F)ccc23)c1` (centres unmarked) [IIo], the activity at 10 µM [1] is reported as 80.8 ± 5.06% and the activity at 10 µM [2] is reported as 95.6 ± 9.58%.
`CC(=O)N1N=C(c2ccc3c(c2)OCO3)CC1c1cccc(Nc2ccnc3cc(C(F)(F)F)ccc23)c1` (centres unmarked) [IIp] gave an activity at 10 µM [1] of 71.6 ± 5.07% and an activity at 10 µM [2] of 99.6 ± 4.09%.
In the case of `Cc1ccc(C2=NN(C=O)C(c3cccc(Nc4ccnc5cc(Cl)ccc45)c3)C2)cc1` (centres unmarked) [Ib], the activity at 10 µM [1] is reported as 77 ± 2.25% and the activity at 10 µM [2] is reported as 78.4 ± 6.51%.
`COc1ccc(C2=NN(C=O)C(c3cccc(Nc4ccnc5cc(Cl)ccc45)c3)C2)cc1` (centres unmarked) [Ic] was tested, and the activity at 10 µM [1] was 100 ± 8.46% and the activity at 10 µM [2] was 102 ± 11.7%.
Work on `COc1cc(C2=NN(C=O)C(c3cccc(Nc4ccnc5cc(Cl)ccc45)c3)C2)cc(OC)c1OC` (centres unmarked) [Id] yielded an activity at 10 µM [1] of 130 ± 5.04% and an activity at 10 µM [2] of 110 ± 15%.
Work on `O=CN1N=C(c2ccc(F)cc2)CC1c1cccc(Nc2ccnc3cc(Cl)ccc23)c1` (centres unmarked) [Ie] yielded an activity at 10 µM [1] of 40.6 ± 3.71% and an activity at 10 µM [2] of 70.4 ± 6.53%.
`O=CN1N=C(c2ccc(Br)cc2)CC1c1cccc(Nc2ccnc3cc(Cl)ccc23)c1` (centres unmarked) [Ig] was tested, and the activity at 10 µM [1] was 88.1 ± 6.05% and the activity at 10 µM [2] was 94.8 ± 8.91%.
`O=CN1N=C(c2ccc3c(c2)OCO3)CC1c1cccc(Nc2ccnc3cc(Cl)ccc23)c1` (centres unmarked) [Ih] showed an activity at 10 µM [1] of 49.9 ± 12% and an activity at 10 µM [2] of 85.8 ± 9.42%.
`Cc1ccc(C2=NN(C=O)C(c3cccc(Nc4ccnc5cc(C(F)(F)F)ccc45)c3)C2)cc1` (centres unmarked) [Ij] showed an activity at 10 µM [1] of 93.7 ± 6.15% and an activity at 10 µM [2] of 84.9 ± 8.17%.
`COc1ccc(C2=NN(C=O)C(c3cccc(Nc4ccnc5cc(C(F)(F)F)ccc45)c3)C2)cc1` (centres unmarked) [Ik] gave an activity at 10 µM [1] of 78.6 ± 5.75% and an activity at 10 µM [2] of 99.7 ± 9.37%.
For `COc1cc(C2=NN(C=O)C(c3cccc(Nc4ccnc5cc(C(F)(F)F)ccc45)c3)C2)cc(OC)c1OC` (centres unmarked) [Il], the activity at 10 µM [1] was 85.8 ± 2.39% and the activity at 10 µM [2] was 106 ± 15.3%.
Work on `O=CN1N=C(c2ccc(F)cc2)CC1c1cccc(Nc2ccnc3cc(C(F)(F)F)ccc23)c1` (centres unmarked) [Im] yielded an activity at 10 µM [1] of 65.1 ± 4.89% and an activity at 10 µM [2] of 74.9 ± 8.28%.
`O=CN1N=C(c2ccc(Cl)cc2)CC1c1cccc(Nc2ccnc3cc(C(F)(F)F)ccc23)c1` (centres unmarked) [In] gave an activity at 10 µM [1] of 61.8 ± 3.97% and an activity at 10 µM [2] of 93.6 ± 4.45%.
